Where two headings read alike, the source gives them in different places.
Tests used:
NIH 3T3 and HepG2 cells = assay: Effect on viability of mammalian cells (both cell lines); format: cell-based, mouse and human
Protocol: (§1) NIH 3T3 and HepG2 cells (both from ATCC, Manassas, VA, USA) were cultured in flat-bottomed 96-well MicroWell™ plates (NUNC, Roskilde, Denmark) at seeding densities of ~23,000 and ~22,000 cells/well, respectively, and then cultured for 22–24 h under standard culturing conditions (37°C, 5% CO2, humidified air) to reach 80–90% confluence. NIH 3T3 were cultured in Dulbecco's modified Eagle's medium (DMEM) supplemented with 10% (v/v) newborn-calf serum (NCS) (Gibco, Paisly, UK), while HepG2 were cultured in Eagle's minimum essential medium (EMEM) supplemented with 10% (v/v) fetal bovine serum (FBS, Gibco, Paisly, UK), sodium pyruvate (1 mM), and non-essential amino acids (1%, v/v). Both culturing media were further supplemented with penicillin (100 U/mL), streptomycin (100 μg/mL), and L-glutamine (2 mM).
(§2) Effect on cell viability was determined in NIH 3T3 fibroblasts and HepG2 hepatocytes by using the MTS/PMS assay measuring metabolic activity. Briefly, the adhered cells were washed with 37°C Hanks' balanced salt solution (HBSS from Sigma-Aldrich, St. Louis, MO, USA), containing 10 mM HEPES (AppliChem, Darmstadt, Germany), and adjusted to pH 7.4, and were then exposed for 1 h to 100 μL of test compound(s) dissolved in the appropriate culturing medium without serum for each cell line. After exposure the cells were washed with HBSS containing 10 mM HEPES (pH 7.4) and 100 μL of an MTS/PMS solution, consisting of 240 μg/mL MTS (Promega, Madison, WI, USA) and 2.4 μg/mL PMS (SigmaAldrich, Buchs, Switzerland) in HBSS, was added to the cells, which then were incubated for 1 h at 37°C with horizontal shaking under light protection. Absorbance was measured at 492 nm by using a POLARstar OPTIMA plate reader (BMG Labtech, Offenburg, Germany). The relative viability was calculated according to Equation (1) with absorbance values obtained after incubation of cells with test compound; incubation with SDS (0.2%, w/v in medium) defined 100% cell death (Abspos), while the absorbance of cells incubated with medium defined 0% cell death (Absneg).
(§3) (1) Relative viability(%)=(Abssample-Abspos)/(Absneg-Abspos)×100%
(§4) EC50 values were calculated by using GraphPad Prism 7 (GraphPad Software, La Jolla, CA, USA) via fitting of the relative cell viability to the concentration of the test compound by using Equation (2):
(§5) (2) Relative viability(%)= Top-Bottom/1+10^(LogIC50-Log[peptidomimetic]) ×Hill slope
With top and bottom representing the mean highest and lowest observed values, respectively. The Hill slope represents a factor for the steepness of the linear part of the curve. […] The selectivity index was calculated as the average effect on cell viability (EC50 values for HepG2 and NIH 3T3 cells) divided by the MIC.

[1] = MTS/PMS cell viability assay; format: cell-based, mouse; conditions: mouse, NIH 3T3 fibroblasts, 1 h exposure, read-out: Cytotoxicity NIH 3T3 EC50 ± SD
Protocol: as §1, §2, §3, §4, §5
(§6) With top and bottom representing the mean highest and lowest observed values, respectively. The Hill slope represents a factor for the steepness of the linear part of the curve. In order to prevent erroneous calculation, the top and bottom values were constrained to 100 and 0%, respectively. Data were collected from technical triplicates. The selectivity index was calculated as the average effect on cell viability (EC50 values for HepG2 and NIH 3T3 cells) divided by the MIC.

MDR E. coli ST131 = assay: Screening of peptidomimetic-antibiotic combinations (growth / growth inhibition); format: cell-based, Escherichia coli; set-up: key to Growth in combination with RIF / Growth in combination with AZM: Growth (+); growth inhibition (–); conditions: for Growth in combination with AZM: peptidomimetic 0.5 μM + azithromycin 1 μg/mL; for Growth in combination with RIF: peptidomimetic 0.5 μM + rifampicin 0.5 μg/mL
[2] = MTS/PMS cell viability assay; format: cell-based; conditions: human, HepG2 hepatocytes, 1 h exposure, read-out: Cytotoxicity HepG2 EC50 ± SD
Protocol: as §1, §2, §3, §4, §5, §6

K. pneumoniae ST258 [3] = assay: MIC by broth microdilution; format: cell-based, Klebsiella pneumoniae; conditions: for Selectivity Index (SI) K. pneumoniae ST258: average of EC50 (HepG2, NIH 3T3) divided by MIC; for MIC K. pneumoniae ST258: peptidomimetic alone
Protocol: (§7) Minimal inhibitory concentrations (MICs) of peptidomimetics, antibiotics and their combinations were determined by broth microdilution according to the Clinical Laboratory Standards Institute performance standards (Clinical and Laboratory Standards Institute, [2013]). […] Since rifampicin and azithromycin mainly are used to treat infections with Gram-positive pathogens only CLSI clinical breakpoints were available for such bacteria. […] Potentiation of additional antibiotics by peptidomimetics was determined by using commercial 96-well plates containing varied concentrations of standard antibiotics (COMPAN1F; Trek Diagnostic Systems Inc.). The peptidomimetics were added immediately prior to inoculation with pathogen, and then MICs were determined as above. The MICs of peptidomimetic/antibiotic combinations were determined according to the method above, and the concentration ratios were selected based upon checkerboard results with 2:1 and 1:4 ratio of peptidomimetic with rifampicin or azithromycin, respectively. Minimal bactericidal concentrations (MBCs) were determined by using growth-curve assay plates. MIC plates were prepared as above, and then the plates were incubated at 37°C with continuous shaking. Growth was recorded at 10 min intervals as optical density (OD) at 600 nm during 24 h. At 24 h, for wells without growth, a sample was diluted 10-fold in sterile saline (0.9% sodium chloride) and plated onto MHA, following CLSI guidelines (Clinical and Laboratory Standards Institute, [1999]).

E. coli ST131 [4] = assay: MIC by broth microdilution; format: cell-based, Escherichia coli; conditions: peptidomimetic alone
Protocol: as §7

K. pneumoniae ST258 [5] = conditions: for Antibiotic MIC in combination (AZM): MIC of azithromycin combined with the labelled peptidomimetic; for Antibiotic MIC in combination (RIF): MIC of rifampicin combined with the labelled peptidomimetic; for Peptidomimetic MIC alone: checkerboard
Protocol: (§8) The potential synergistic effects in peptidomimetic-antibiotic combinations were assessed by using a two-dimensional checkerboard assay (Garcia, [2010]). Briefly, twofold dilutions of peptide and antibiotic were prepared in MBH II media along the X- and Y-axis, respectively, in 96-well plates. The inoculum was added to the plates, and subsequently these were incubated for 18–20 h. All steps for inoculum preparation and broth microdilution were in accordance with the CLSI guidelines (Clinical and Laboratory Standards Institute, [2013]). The fractional inhibitory concentration index (FICI) was calculated as [MICA(A+B)/MICA(alone)] + [MICB(A+B)/MICB(alone)], where MICA(A+B) represents the MIC of antibiotic (A) in combination with peptidomimetic (B), while MICB(A+B) represents the MIC of peptidomimetic (B) in combination with antibiotic (A). MICA(alone) and MICB(alone) represent the MIC of each compound individually. FICI values of ≤0.5 were interpreted as synergy.

P. aeruginosa ATCC 27853 [6] = conditions: for Antibiotic MIC in combination (RIF) / Peptidomimetic MIC alone / Peptidomimetic MIC in combination: P. aeruginosa ATCC 27853; for Antibiotic MIC in combination (RIF): MIC of rifampicin combined with the labelled peptidomimetic; for Peptidomimetic MIC alone: checkerboard; for Reduction of the MIC of azithromycin: P. aeruginosa, sub-MIC concentrations of peptidomimetic
Protocol: as §8

E. coli ST131 [7] = conditions: for Antibiotic MIC in combination (AZM): MIC of azithromycin combined with the labelled peptidomimetic; for Antibiotic MIC in combination (RIF): MIC of rifampicin combined with the labelled peptidomimetic; for Peptidomimetic MIC alone: checkerboard
Protocol: as §8

P. aeruginosa ATCC 27853 [8] = assay: MIC by broth microdilution; format: cell-based, Pseudomonas aeruginosa; conditions: peptidomimetic alone
Protocol: as §7

K. pneumoniae ST258 [9] = assay: Screening of peptidomimetic-antibiotic combinations (growth / growth inhibition); format: cell-based, Klebsiella pneumoniae; set-up: key to Growth in combination with RIF / Growth in combination with AZM: Growth (+); growth inhibition (–); conditions: for Growth in combination with AZM: peptidomimetic 0.5 μM + azithromycin 1 μg/mL; for Growth in combination with RIF: peptidomimetic 0.5 μM + rifampicin 0.5 μg/mL
[10] = 0.5 μM peptidomimetic + 0.5 μg/mL rifampicin

| Compound | EC50 (NIH 3T3 and HepG2 cells) [µM] | EC50 at 1 h [1] [µM] | Growth in combination with AZM (MDR E. coli ST131) | Growth in combination with RIF (MDR E. coli ST131) | EC50 at 1 h [2] [µM] | Selectivity Index (SI) K. pneumoniae ST258 (K. pneumoniae ST258 [3]) | MIC K. pneumoniae ST258 (K. pneumoniae ST258 [3]) [µM] | MIC E. coli ST131 (E. coli ST131 [4]) [µM] | Antibiotic MIC in combination (AZM) (K. pneumoniae ST258 [5]) [µg/mL] | Antibiotic MIC in combination (RIF) (K. pneumoniae ST258 [5]) [µg/mL] | Peptidomimetic MIC alone (K. pneumoniae ST258 [5]) [µM] | Peptidomimetic MIC in combination (K. pneumoniae ST258 [5]; combined with AZM) [µM] | Peptidomimetic MIC in combination (K. pneumoniae ST258 [5]; combined with RIF) [µM] | Antibiotic MIC in combination (RIF) (P. aeruginosa ATCC 27853 [6]) [µg/mL] | Peptidomimetic MIC alone (P. aeruginosa ATCC 27853 [6]) [µM] | Peptidomimetic MIC in combination (P. aeruginosa ATCC 27853 [6]; combined with AZM) [µM] | Peptidomimetic MIC in combination (P. aeruginosa ATCC 27853 [6]; combined with RIF) [µM] | Reduction of the MIC of azithromycin (P. aeruginosa ATCC 27853 [6]) | Antibiotic MIC in combination (AZM) (E. coli ST131 [7]) [µg/mL] | Antibiotic MIC in combination (RIF) (E. coli ST131 [7]) [µg/mL] | also measured |
| --- | --- | --- | --- | --- | --- | --- | --- | --- | --- | --- | --- | --- | --- | --- | --- | --- | --- | --- | --- | --- | --- |
| CC(=O)N[C@@H](CCCCN)C(=O)N(CCC(=O)N[C@@H](CCCCN)C(=O)N(CCC(=O)N[C@@H](CCCCN)C(=O)N(CCC(=O)N[C@@H](CCCCN)C(=O)N(CCC(=O)N[C@@H](CCCCN)C(=O)N(CCC(=O)N[C@@H](CCCCN)C(=O)N(CCC(=O)N[C@@H](CCCCN)C(=O)N(CCC(=O)N[C@@H](CCCCN)C(=O)N(CCC(N)=O)Cc1ccccc1)Cc1ccccc1)Cc1ccccc1)Cc1ccccc1)Cc1ccccc1)Cc1ccccc1)Cc1ccccc1)Cc1ccccc1 [Peptidomimetic 15, Ac-(Lys-βNPhe)8-NH2] | > 100 | 217 ± 23.1 | – | – | 121.37 ± 0.06 | (5) | 32 | 1 | 8 | 0.5 | 32 | 0.5 | 0.5 | 0.5 | 1 | 0.5 | 0.5 | 32- to 512 fold | 1 | 0.5 | Screening result with rifampicin (MDR E. coli ST131; [10]): inhibit growth; Peptidomimetic MIC alone (E. coli ST131 [7]): 1 µM; Peptidomimetic MIC in combination (E. coli ST131 [7]; combined with AZM): 0.13 µM; Peptidomimetic MIC in combination (E. coli ST131 [7]; combined with RIF): 0.13 µM; MIC P. aeruginosa ATCC 27853 (P. aeruginosa ATCC 27853 [8]): 1 µM; Screening result with rifampicin (K. pneumoniae ST258 [9]; [10]): inhibit growth; Growth in combination with AZM (K. pneumoniae ST258 [9]): +; Growth in combination with RIF (K. pneumoniae ST258 [9]): – |
| C[C@@H](c1ccccc1)N(CCC(N)=O)C(=O)[C@H](CCCCNC(=N)N)NC(=O)CCN(C(=O)[C@H](CCCCN)NC(=O)CCN(C(=O)[C@H](CCCCNC(=N)N)NC(=O)CCN(C(=O)[C@H](CCCCN)NC(=O)CCN(C(=O)[C@H](CCCCNC(=N)N)NC(=O)CCN(C(=O)[C@H](CCCCN)NC(=O)CNCCN)[C@@H](C)c1ccccc1)[C@@H](C)c1ccccc1)[C@@H](C)c1ccccc1)[C@@H](C)c1ccccc1)[C@@H](C)c1ccccc1 [Peptidomimetic 25, NDab-Lys-βNspe-hArg-βNspe)3-NH2] | 80 to 170 | 167 ± 5.53 | – | – | 85 ± 3.06 | (16) | 8 | 2 | 8 | 0.06 | 8 | 0.5 | 1 | 0.06 | 8 | 1 | 1 | 32- to 512 fold | 0.5 | 0.5 | Peptidomimetic MIC alone (E. coli ST131 [7]): 2 µM; Peptidomimetic MIC in combination (E. coli ST131 [7]; combined with AZM): 0.25 µM; Peptidomimetic MIC in combination (E. coli ST131 [7]; combined with RIF): 0.25 µM; MIC P. aeruginosa ATCC 27853 (P. aeruginosa ATCC 27853 [8]): 8 µM; Growth in combination with AZM (K. pneumoniae ST258 [9]): +; Growth in combination with RIF (K. pneumoniae ST258 [9]): + |

Source: paper PMC6615261, “Repurposing Azithromycin and Rifampicin Against Gram-Negative Pathogens by Combination With Peptidomimetics” (Frontiers in Cellular and Infection Microbiology, 2019)
